Test [1] has as its system GAL-XOR-6. Put plainly: cotransfection assay, activation of GAL-XOR6 in CV-1 cells. It is filed as cell-based, Xenopus laevis. Particulars: for rank order potency of activation, esters differing in alkyl length (FIG. 3): 10^−6M of each compound; for activation of GAL-XOR-6 by agonist cocktail: cocktail: thyroid hormone 10^−7M, vitamin D3 10^−7M, all-trans RA 10^−6M, WY-14,643 5×10^−6M. Here is the method: FIG. 3 illustrates the activation of XOR-6 by a variety of amino benzoate derivatives. Thus, 10^−6M of each compound was tested in the co-transfection assay for its ability to activate GAL-XOR6.
It can be concluded, therefore, that XOR-6 defines a novel RXR-dependent, ligand-mediated signalling pathway.
pCMX-GAL4-XOR6 was constructed by cloning nucleotides encoding amino acids 103 to 386 of XOR-6 into the SalI to XbaI sites of pCMX-GAL4 (see U.S. Ser. No. 08/177,740).
(§1) CV-1 cells were maintained in DMEM containing 10% resin-charcoal stripped fetal bovine serum. Liposome-mediated transient transfections were performed using DOTAP reagent (Boehringer Manheim) at a concentration of 5 μg/ml in Opti-MEM (Gibco). After 12-18 hours, the cells were washed and fresh DMEM-10% serum was added, including receptor agonists if required. After a further 48 hour incubation, the cells were lysed and luciferase reporter gene assays and β-galactosidase transfection control assays performed. Reporter gene expression is normalized to the β-galactosidase transfection control and expressed as relative light units per O.D. per minute of β-galactosidase activity.

Test [2] concerns XOR-6. Briefly: cotransfection assay, activation of XOR-6 in transfected CV-1 cells. To be noted: for rank order potency of XOR-6 activation, ortho/meta/para amino ethyl benzoates: cotransfection assay; for activation of XOR-6 (agonist activity in the cotransfection assay): transfected CV-1 cells. Type of test: cell-based, Xenopus laevis. Here is the method: A search for the XOR-6 ligand was instituted based on the presumption that the receptor and its ligand must be co-expressed at some time during development. Accordingly, an unbiased, bioassay directed screen for XOR-6 agonists was undertaken in HPLC fractionated organic extracts derived from a mixture of developmental stages. Total lipid extracts from a mixture of embryonic stages from fertilized eggs through swimming tadpoles were prepared and tested for the ability to activate both GAL-XOR6 or full-length XOR-6 in transfected CV-1 cells.
The total extract was partitioned between iso-octane and MeOH and again tested for bioactivity.
A suitable eukaryotic expression vector for use herein was constructed from the commercially available vector pCDNAI-AMP (Invitrogen). This vector allows expression from the strong cytomegalovirus early promoter, and bacteriophage T7 and SP6 promoter-driven production of sense and antisense RNA, respectively.
The cloning strategy employed was as follows: the three endogenous NcoI sites were removed by site directed mutagenesis, the polylinker region between XhoI and XbaI was removed by double digestion, endfilling and self ligation. […] The resulting plasmid, designated pCDG1, can be linearized with NotI to produce mRNA from the bacteriophage T7 promoter. The XOR-6 protein coding region was cloned between the NcoI and BamHI sites of pCDG1 and designated pCDG-XOR6.
as §1

In test [3] the target is T1, xRXRα (Xenopus laevis, UniProt P51128).
T1 construct: made in house; host or cells: coupled in vitro transcription/translation (TNT, Promega)
T1 sequence (P51128 1-488): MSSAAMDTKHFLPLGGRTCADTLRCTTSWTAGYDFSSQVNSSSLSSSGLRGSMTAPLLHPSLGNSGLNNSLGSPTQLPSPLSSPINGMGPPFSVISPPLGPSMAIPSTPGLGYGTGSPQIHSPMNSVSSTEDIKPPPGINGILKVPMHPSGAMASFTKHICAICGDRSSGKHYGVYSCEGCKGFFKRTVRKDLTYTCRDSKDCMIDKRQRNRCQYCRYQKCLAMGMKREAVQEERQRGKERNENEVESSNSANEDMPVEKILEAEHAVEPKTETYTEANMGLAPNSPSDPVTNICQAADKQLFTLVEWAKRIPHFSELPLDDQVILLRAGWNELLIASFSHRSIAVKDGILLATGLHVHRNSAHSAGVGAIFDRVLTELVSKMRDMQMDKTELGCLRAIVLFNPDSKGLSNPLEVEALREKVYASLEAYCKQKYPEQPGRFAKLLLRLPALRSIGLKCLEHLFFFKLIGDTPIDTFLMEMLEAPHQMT
Briefly: protease protection assay (ligand binding), parallel experiment. To be noted: parallel experiment with xRXRα. From the text:
Biol. 14:287-298 (1994) was utilized.

The test system of test [4] is XOR6:xRXRα heterodimer. Put plainly: co-transfection experiments, responsiveness of heterodimer to two ligands. It is filed as cell-based, Xenopus laevis. Particulars: receptor dependent manner. Here is the method:
Receptors were transfected into cells and incubated with the indicated concentrations of agonists.
A potentially significant property of the XOR6:xRXRα heterodimer is its responsiveness to two ligands. […] This synergism occurs at several dilutions of the XOR-6 agonist and concentrations of 9-cis RA (see FIG. 4). […] Such complexes would be ideal candidates for responding to combinations of graded morphogenetic signals during development.
as §1

The test system of test [5] is βRARE. Put plainly: interference of XOR-6 overexpression with retinoic acid signalling through βRARE in CV-1 cells. Type of test: cell-based. To be noted: 1 μg expression plasmid co-transfected into CV-1 cells with 5 μg tk-β REx2-luc, all-trans retinoic acid. The method, then: 1 μg of XOR-6 expression plasmid was co-transfected into CV-1 cells with 5 μg of tk-β REx2-luc, and challenged with the indicated concentrations of all-trans retinoic acid.
Because XOR-6:RXR heterodimers bind well to a retinoic acid response element, βRARE, it was tested whether overexpression of XOR-6 could influence retinoic acid signalling through this element. […] This effect was strongest with full-length XOR-6 (24% of wild-type activity) but still detectable with GAL-XOR-6 (44% of wild-type activity).
as §1

For the molecule `CCCCOC(=O)c1ccc(N)cc1`, the “rank order potency of activation, esters differing in alkyl length (FIG. 3)” value in test [1] is given as 4-amino-butyl benzoate>3-amino-ethyl benzoate>4-amino-ethyl benzoate>>4-amino methyl benzoate. Take `CCOC(=O)c1ccccc1N` [2-AEB]: in test [2], the “rank order potency of XOR-6 activation, ortho/meta/para amino ethyl benzoates” value is on record as 3-AEB>4-AEB>>2-AEB and the “activation of XOR-6 (agonist activity in the cotransfection assay)” value was “activated”. Turning to `Nc1ccccc1C(=O)O` [2-amino benzoic acid, reference compound], the “activation of XOR-6 (agonist activity in the cotransfection assay)” value in test [2] is “not possible, however, to demonstrate XOR-6 activation”. As for `CCOC(=O)c1cccc(N)c1` [3-AEB], in test [2], the “specificity of activation among an extensive collection of vertebrate nuclear receptors” value is recorded as “specifically activates XOR-6 alone” and the “activation of XOR-6 (agonist activity in the cotransfection assay)” value was “potent agonist”. Also, the “activation of XOR-6 (agonist activity in the cotransfection assay)” value in test [2] (listed as meta amino ethyl benzoate) is “activated”. Further, the “protection from trypsin cleavage” value in test [3] was “not seen”. Also, the “rank order potency of activation, esters differing in alkyl length (FIG. 3)” value in test [1] is 4-amino-butyl benzoate>3-amino-ethyl benzoate>4-amino-ethyl benzoate>>4-amino methyl benzoate.

`Nc1cccc(C(=O)O)c1` [3-amino benzoic acid, reference compound]: the “activation of XOR-6 (agonist activity in the cotransfection assay)” value in test [2] is given as “not possible, however, to demonstrate XOR-6 activation”. Same read-out and setting: for `Nc1cccc(C(=O)O)c1O` [3-amino salicylic acid, reference compound] the value was “not possible, however, to demonstrate XOR-6 activation”. `CCOC(=O)c1ccc(N)cc1` [4-AEB, 4-amino-ethyl benzoate]: in test [2], the “rank order potency of XOR-6 activation, ortho/meta/para amino ethyl benzoates” value was 3-AEB>4-AEB>>2-AEB and the “activation of XOR-6 (agonist activity in the cotransfection assay)” value is given as “activated”. Besides, the “rank order potency of activation, esters differing in alkyl length (FIG. 3)” value in test [1] is 4-amino-butyl benzoate>3-amino-ethyl benzoate>4-amino-ethyl benzoate>>4-amino methyl benzoate. Take `Nc1ccc(C(=O)O)cc1` [4-amino benzoic acid, 4-amino-benzoic acid, reference compound]: the “activation of XOR-6 (agonist activity in the cotransfection assay)” value in test [2] was “not possible, however, to demonstrate XOR-6 activation”. Turning to `COC(=O)c1ccc(N)cc1` [4-amino methyl benzoate], the “rank order potency of activation, esters differing in alkyl length (FIG. 3)” value in test [1] is reported as 4-amino-butyl benzoate>3-amino-ethyl benzoate>4-amino-ethyl benzoate>>4-amino methyl benzoate. `Nc1ccc(C(=O)O)c(O)c1` [4-amino salicylic acid, reference compound]: in test [2], the “activation of XOR-6 (agonist activity in the cotransfection assay)” value is “not possible, however, to demonstrate XOR-6 activation”.

On to `CC1=C(/C=C/C(C)=C\C=C\C(C)=C\C(=O)O)C(C)(C)CCC1` [9-cis RA, 9-cis retinoic acid], for which, in test [4], the “stimulation of reporter gene expression” value was “stimulated reporter gene expression”. With `Cc1cccc(Nc2cc(Cl)nc(SCC(=O)O)n2)c1C` [WY-14,643, reference compound], the “activation of GAL-XOR-6 by agonist cocktail” value in test [1] is “not activated”. Regarding `CC1=C(/C=C/C(C)=C/C=C/C(C)=C/C(=O)O)C(C)(C)CCC1` [all-trans RA, all-trans retinoic acid, reference compound], the “activation of GAL-XOR-6 by agonist cocktail” value in test [1] is “not activated”.

In the case of `N[C@@H](Cc1cc(I)c(Oc2ccc(O)c(I)c2)c(I)c1)C(=O)O` [thyroid hormone, reference compound], the “activation of GAL-XOR-6 by agonist cocktail” value in test [1] is on record as “not activated”. Same read-out and setting: for `C=C1CC[C@H](O)C/C1=C/C=C1\CCC[C@]2(C)[C@@H]([C@H](C)CCCC(C)C)CC[C@@H]12` [vitamin D3, reference compound] the value was “not activated”.

B1: full-length XOR-6: Xenopus Orphan Receptor 6, about 386 amino acids (SEQ ID NO:2), overexpressed from plasmid (protein)
chain: MWKVQETLVLEEEEEEEDASNSCGTGEDEDDGDPKICRACGDRATGYHFNAMTCEGCKGFFRRAVKRNLRLSCPFQNSCVINKSNRRHCQACRLKKCLDIGMRKELIMSDAAVEQRRALIKRKHKLTKLPPTPPGASLTPEQQHFLTQLVGAHTKTFDFNFTFSKNFRPIRRSSDPTQEPQATSSEAFLMLPHISDLVTYMIKGIISFAKMLPYFKSLDIEDQIALLKGSVAEVSVIRFNTVFNSDTNTWECGPFTYDTEDMFLAGFRQLFLEPLVRIHRMMRKLNVQSEEYAMMAALSIFASYRPGVCDWEKIQKLQEHIALTLKDFIDSQRPPSPQNRLLYPKIMECLTELRTVNDIHSKQLLEIWDIQPDATPLMREVFGSPE
On to B1, for which the “retinoic acid-responsiveness of βRARE promoter on co-expression” value in test [5] was 24 % of wild-type activity.

B2: GAL-XOR-6: GAL4 fusion with amino acids 103 to 386 of XOR-6 (pCMX-GAL4-XOR6) (protein)
chain: RKELIMSDAAVEQRRALIKRKHKLTKLPPTPPGASLTPEQQHFLTQLVGAHTKTFDFNFTFSKNFRPIRRSSDPTQEPQATSSEAFLMLPHISDLVTYMIKGIISFAKMLPYFKSLDIEDQIALLKGSVAEVSVIRFNTVFNSDTNTWECGPFTYDTEDMFLAGFRQLFLEPLVRIHRMMRKLNVQSEEYAMMAALSIFASYRPGVCDWEKIQKLQEHIALTLKDFIDSQRPPSPQNRLLYPKIMECLTELRTVNDIHSKQLLEIWDIQPDATPLMREVFGSPE
modifications: left off: large carriers
Consider B2, for which, in test [5], the “retinoic acid-responsiveness of βRARE promoter on co-expression” value was 44 % of wild-type activity.

The values are drawn from patent US6391847B1, “Method, polypeptides, nucleotide sequence of XOR-6, a vitamin D-like receptor from xenopus” (The Salk Institute for Biological Studies, priority 1995, dated 2002).
